Data published in article PMC9374667 (Communications Biology, 2022).
Several values for one entry are separate records, joined by “and”; a condition that tells them apart may be missing. Equal entries are not always repeated.

Experiments:
[1] = pH of the solution after 24 hours of the dissolution test; type: physicochemical
Method: Solubilities were determined by adding excess sample to 30 mL different mediums, such as HCl solution, acetate buffer, phosphate buffer, SGF, FaSSIF and FeSSIF. The configuration of various buffer solutions is shown in Supplementary Table 2. After being shaken at 400 rpm at 37 °C for 0.5, 1, 2, and 24 h, 0.3 mL of suspension was sampled and centrifuged at 14,000 rpm for 8 min to isolate mother liquor, and then analyzed by HPLC after dilution. All samples were analyzed in triplicate. […]
into a 1000 mL flask followed by addition of about 800 mL of deionized water. The mixture is stirred until all solids are dissolved.
Add about 100 mL of 0.1 N HCl, check pH value with a pH meter and adjust the pH to 2.0 with HCl (1 N) or NaOH (1 N). Then dilute to the volume with deionized water.
* 1N sodium hydroxide: Weigh 8 g NaOH in a 200 mL plastic volumetric flask, add deionized water to volume and mix well. […]
phosphate and 3.093 g sodium chloride in a 500 mL volumetric flask, add about 0.450 L deionized water, and adjust the pH to 6.5 with 1N sodium hydroxide or 1 N hydrochloric acid. Make up to volume (0.5 […]
Step 2: Place and dissolve 1.120 g FaSSIF/FeSSIF/FaSSGF instant powder with 0.250 L of buffer (from step 1) in a 500 mL volumetric flask, then add buffer (from step 1) to volume, and mix well. […]
g sodium chloride in a 500 mL volumetric flask, add about 0.450 L deionized water, and adjust the pH to 5.0 with 1 N sodium hydroxide or 1 N hydrochloric acid. Make up to volume (500 mL) with
Step 2: Place and dissolve 5.600 g FaSSIF/FeSSIF/FaSSGF instant […]
0.750 L deionized water. Make up to volume (1000 mL) with deionized water and placed overnight.
(1 picture or pasted object on this page, not shown here)

db/db mice [2] = test: Fat depots weight (BAT, iWAT, eWAT; percentage of body weight); type: in vivo; set-up: key to BAT fat depot weight (Figure 4c): % of body weight (fat depot weight / body weight * 100%); settings: db/db mice; for eWAT fat depot weight (Figure 4c) / iWAT fat depot weight (Figure 4c): in %; for Fat depots weight / body weight: individual mice
Method: The lean wild type control and the db/db control mice were given equal vehicle volume (0.5% CMC-Na solution). All mice were monitored for food intake, body weight, and fasting blood glucose during the 35-day trial. Glucose tolerance test (GTT) and insulin resistance test (ITT) were performed at 4 and 5 weeks of treatment, respectively. Metabolic analysis was performed at 5 weeks of treatment. At the end of the study, blood samples were taken through the retroorbital venous sinus of mice, fat depots (brown fat, inguinal subcutaneous fat, epididymal fat, perirenal fat and mesenteric fat depot) were dissected, weighed, and immediately frozen in liquid nitrogen and stored at −80 °C until required. Weight of fat depots are expressed in percentage (fat depots weight /bodyweight * 100%).

db/db mice [3] = test: HE staining of epididymal adipose tissue, adipocyte size; type: in vivo; settings: for Cell diameter (adipocyte size of eWAT): individual cells
Method: The adipose tissue was fixed overnight in 4% paraformaldehyde, then embedded in paraffin and cut into 5 µm thick slices. Tissue sections were stained with hematoxylin and eosin (H&E). For immunohistochemistry, sections were incubated with primary antibodies against F4/80 (1:100 dilution) diluted in the blocking solution at 4 °C overnight. The tissue sections were then incubated with the horseradish peroxidase (HRP)-conjugated secondary antibody at room temperature for 2 h. Finally, the sections were developed with diaminobenzidine (DAB) and counterstained with hematoxylin. Images were obtained under a microscope. To quantify the F4/80-positive macrophages, two random fields per sample were analyzed by Image J software. The IHC profiler plugin of ImageJ was used to calculate the F4/80 positive area.

db/db mice [4] = test: Fasting serum insulin levels (ELISA); type: in vivo; settings: db/db mice; for insulin level (Figure 5b): fasting serum, individual mice 1-6; for Fasting serum insulin levels: 35 days of treatment, vs vehicle
Method: (§1) Mice were fasted for 4 h for insulin resistance test and intraperitoneally injected with 1 unit/kg of insulin. Blood glucose levels were measured from the tail vein blood at 0, 15, 30, 45, 60, 90, and 120 min after injection. Plasma insulin levels were measured using an ultrasensitive mouse insulin ELISA kit (Nanjing Jiancheng Bioengineering Institute, Nanjing, China).

db/db mice [5] = test: Glucose tolerance test (GTT); type: in vivo; settings: for blood glucose level, mean: mean of 10 mice
db/db mice [6] = test: Insulin tolerance test (ITT), AUC and initial slope; type: in vivo; settings: for blood glucose level: individual mice, in mmol/L (unit assumed); for Initial Slope: individual animals (Figure S10a)
Method: as §1

[7] = BJ 75mg/kg, individual mice 1-10
[8] = BJ 150mg/kg, individual mice 1-10
[9] = BJ 75 and 150 mg/kg, BBR 150 mg/kg, Ibu 150 mg/kg
[10] = BJ 75mg/kg, time column 1 of 7 (time not printed)
[11] = BJ 75mg/kg, time column 2 of 7 (time not given)
[12] = BJ 75mg/kg, time column 3 of 7 (time not given)
[13] = BJ 75mg/kg, time column 4 of 7 (time not given)
[14] = BJ 75mg/kg, time column 5 of 7 (time not given)
[15] = BJ 75mg/kg, time column 6 of 7 (time not given)
[16] = BJ 75mg/kg, time column 7 of 7 (time not printed)
[17] = BJ 150mg/kg, time column 1 of 7 (time not printed)
[18] = BJ 150mg/kg, time column 2 of 7 (time not given)
[19] = BJ 150mg/kg, time column 3 of 7 (time not given)
[20] = BJ 150mg/kg, time column 4 of 7 (time not given)
[21] = BJ 150mg/kg, time column 5 of 7 (time not given)
[22] = BJ 150mg/kg, time column 6 of 7 (time not given)
[23] = BJ 150mg/kg, time column 7 of 7 (time not printed)

For `CC(C)Cc1ccc(C(C)C(=O)[O-])cc1.COc1ccc2cc3[n+](cc2c1OC)CCc1cc2c(cc1-3)OCO2.O.O.O.O` [BJ, berberine-ibuprofen], the “pH of the solution after 24 hours” value ([1]; Acetate buffer, blank vehicle 4.54) was 4.82, the “pH of the solution after 24 hours” value ([1]; CMC-Na, blank vehicle 6.51) was 6.70 and the “pH of the solution after 24 hours” value ([1]; FaSSIF-v1, blank vehicle 6.51) was 5.50. The “pH of the solution after 24 hours” value ([1]; FeSSIF-v1, blank vehicle 5.04) was 5.17, the “pH of the solution after 24 hours” value ([1]; HCl solution, blank vehicle 1.08) was 1.03 and the “pH of the solution after 24 hours” value ([1]; Phosphate buffer, blank vehicle 6.84) was 6.90. The “pH of the solution after 24 hours” value ([1]; SGF, blank vehicle 2.03) was 5.38, the “BAT fat depot weight (Figure 4c)” value (db/db mice [2]; [7]) was 1.4827 and 0.5576 and 2.7679 and 1.5898 and 1.8729 and 1.268 and 0.7299 and 1.4681 and 1.4209 and 1.9195 and the “eWAT fat depot weight (Figure 4c)” value (db/db mice [2]; [7]) was 2.9499 and 3.004 and 3.3073 and 3.0683 and 2.8654 and 1.9039 and 2.9972 and 3.1786 and 2.5863 and 2.885. The “iWAT fat depot weight (Figure 4c)” value (db/db mice [2]; [7]) was 2.9834 and 2.2193 and 4.5703 and 3.1934 and 4.0303 and 2.1465 and 2.6777 and 3.7948 and 2.2136 and 4.2859, the “eWAT fat depot weight (Figure 4c)” value (db/db mice [2]; [8]) was 2.6032 and 2.4699 and 2.5757 and 2.9739 and 2.5582 and 2.4535 and 2.305 and 2.1485 and 2.4952 and 2.1171 and the “iWAT fat depot weight (Figure 4c)” value (db/db mice [2]; [8]) was 2.0087 and 2.2014 and 2.1848 and 3.5434 and 3.664 and 1.962 and 0.513 and 2.1562 and 2.8234 and 1.567. For the same molecule, the “Fat depots weight / body weight” value (db/db mice [2]; 75 mg/kg for 35 days, 75 mg/kg) was 17.3087% and 20.1428% and 17.1651% and 21.4638% and 17.3569% and 14.6768% and 23.7077% and 20.828% and 19.5629% and 16.4679%, the “Fat depots weight / body weight” value (db/db mice [2]; 150 mg/kg for 35 days, 150 mg/kg) was 11.5274% and 15.536% and 18.4944% and 12.6638% and 16.2402% and 14.3781% and 12.8992% and 19.8596% and 21.4381% and 12.5947% and the “Fat depots weight compared with vehicle” value (db/db mice [2]; [9]) was “lower fat depots weight than vehicle-treated db/db mice”. The “Cell diameter (adipocyte size of eWAT)” value (db/db mice [3]; 75 mg/kg) was 121.031 µm and 117.863 µm and 116.509 µm and 116.462 µm and 115.083 µm and 111.737 µm and 111.179 µm and 109.716 µm and 106.71 µm and 106.209 µm and 103.54 µm and 98.2043 µm and 95.428 µm and 94.4084 µm and 90.8792 µm and 133.968 µm and 130.976 µm and 129.724 µm and 125.916 µm and 124.05 µm, the “Cell diameter (adipocyte size of eWAT)” value (db/db mice [3]; 150 mg/kg) was 102.304 µm and 92.1827 µm and 91.4137 µm and 90.3818 µm and 88.4919 µm and 87.3914 µm and 86.5338 µm and 86.4994 µm and 85.9825 µm and 85.1497 µm and 81.6079 µm and 81.6018 µm and 80.5245 µm and 80.4936 µm and 112.756 µm and 110.047 µm and 105.5 µm and 104 µm and 102.927 µm and the “Size of adipocytes in eWAT compared with vehicle” value (db/db mice [3]; [9]) was “significantly reduced”. For the same molecule, the “insulin level (Figure 5b)” value (db/db mice [4]; BJ 75mg/kg) was 10.1686 and 14.5706 and 11.3611 and 13.6498 and 12.9045 and 14.3689, the “insulin level (Figure 5b)” value (db/db mice [4]; BJ 150mg/kg) was 10.5413 and 10.778 and 14.6188 and 12.4266 and 11.7294 and 13.6718 and the “Fasting serum insulin levels” value (db/db mice [4]; 75 mg/kg) was “did not produce significant effects”. The “Fasting serum insulin levels” value (db/db mice [4]; 150 mg/kg) was “significantly reduced the fasting serum insulin levels”, the blood glucose level, mean (db/db mice [5]; [10]) was 20.5 mmol/L and the blood glucose level, mean (db/db mice [5]; [11]) was 26.6 mmol/L. It also gave a blood glucose level, mean (db/db mice [5]; [12]) of 31.4 mmol/L, a blood glucose level, mean (db/db mice [5]; [13]) of 32 mmol/L and a blood glucose level, mean (db/db mice [5]; [14]) of 31.2 mmol/L. It also gave a blood glucose level, mean (db/db mice [5]; [15]) of 28.2 mmol/L, a blood glucose level, mean (db/db mice [5]; [16]) of 23.2 mmol/L and a blood glucose level, mean (db/db mice [5]; [17]) of 12.3 mmol/L. The blood glucose level, mean (db/db mice [5]; [18]) was 26.4 mmol/L, the blood glucose level, mean (db/db mice [5]; [19]) was 27.7 mmol/L and the blood glucose level, mean (db/db mice [5]; [20]) was 24.1 mmol/L. It also gave a blood glucose level, mean (db/db mice [5]; [21]) of 21.2 mmol/L, a blood glucose level, mean (db/db mice [5]; [22]) of 18.4 mmol/L and a blood glucose level, mean (db/db mice [5]; [23]) of 15.8 mmol/L. The “Glucose tolerance (GTT)” value (db/db mice [5]; db/db mice, 150 mg/kg, week 4) was “displayed better tolerance to glucose load”, the blood glucose level (db/db mice [6]; [10]) was 18.5 and 19.1 and 12.0 and 14.2 and 11.0 and 11.7 and 16.7 and 19.2 and 21.8 and 15.9 and the blood glucose level (db/db mice [6]; [11]) was 19.2 and 21.2 and 12.1 and 14.6 and 8.3 and 11.4 and 18.6 and 22.2 and 23.5 and 18.5. The blood glucose level (db/db mice [6]; [12]) was 18.3 and 19.0 and 10.1 and 10.5 and 8.8 and 7.5 and 13.7 and 19.3 and 20.1 and 11.6, the blood glucose level (db/db mice [6]; [13]) was 13.0 and 15.2 and 7.6 and 10.0 and 6.8 and 7.5 and 12.1 and 16.3 and 20.8 and 11.0 and the blood glucose level (db/db mice [6]; [14]) was 12.4 and 16.1 and 8.4 and 8.8 and 5.9 and 7.1 and 11.2 and 16.2 and 16.3 and 10.1. The blood glucose level (db/db mice [6]; [15]) was 10.2 and 13.2 and 6.9 and 8.2 and 5.3 and 6.4 and 9.7 and 13.6 and 14.6 and 9.4, the blood glucose level (db/db mice [6]; [16]) was 12.1 and 12.2 and 9.0 and 9.8 and 4.9 and 5.5 and 10.8 and 12.3 and 14.9 and 10.0 and the blood glucose level (db/db mice [6]; [17]) was 18.0 and 17.8 and 9.3 and 14.4 and 11.4. For the same molecule, the blood glucose level (db/db mice [6]; [18]) was 13.2 and 15.0 and 7.7 and 11.7 and 11.6, the blood glucose level (db/db mice [6]; [19]) was 7.7 and 7.0 and 1.7 and 6.1 and the blood glucose level (db/db mice [6]; [20]) was 7.2 and 6.7 and 1.5 and 6.3. The blood glucose level (db/db mice [6]; [21]) was 9.0 and 8.2 and 3.3 and 5.2, the blood glucose level (db/db mice [6]; [22]) was 8.2 and 7.6 and 2.8 and 7.0 and the blood glucose level (db/db mice [6]; [23]) was 10.4 and 7.7 and 4.0 and 7.3. The “Insulin sensitivity (ITT)” value (db/db mice [6]; db/db mice, 150 mg/kg, week 5) was “more sensitive to insulin stimulation”, the “Initial Slope” value (db/db mice [6]; db/db mice, BJ 75mg/kg) was -0.0733 mmol/L/min and -0.14 mmol/L/min and -0.1 mmol/L/min and 0.0033 mmol/L/min and -0.0567 mmol/L/min and -0.1433 mmol/L/min and -0.0067 mmol/L/min and -0.0033 mmol/L/min and -0.0633 mmol/L/min and -0.1233 mmol/L/min and the “Initial Slope” value (db/db mice [6]; db/db mice, BJ 150mg/kg) was -0.1767 mmol/L/min and -0.22 mmol/L/min and -0.15 mmol/L/min and -0.28 mmol/L/min and -0.3433 mmol/L/min and -0.36 mmol/L/min and -0.2533 mmol/L/min and -0.2467 mmol/L/min.
